Test results: patent US9918916B2, “Active ingredient comprising a mixture of unsaturated dicarboxylic fatty acids, compositions comprising said ingredient and cosmetic or dermatological uses” (SEDERMA, priority 2014, dated 2018)

Tests used:
Format in all cases: cell-based
[1] = tested on: G3PDH; test: G3PDH activity on human adipocytes; settings: 10 μm
Description: In this perspective, in vitro tests aiming to show an increase in adipocyte differentiation (with glycerol-3-phosphate dehydrogenase or G3PDH as the key enzyme of this differentiation) on pre-adipocyte cultures were implemented. Other in vitro assays seek to show slower lipolysis on adipocyte cultures to validate the effectiveness of these compounds. Human pre-adipocytes are seeded and induced to differentiate with a specific mixture of inducers (without indomethacine*) in the presence or absence (negative control) of the products to be tested. After 10 days, the cultures are stopped and the residual […] activity is measured by spectrophotometry on a cellular lysate. […] Results

[2] = tested on: hyaluronic acid; test: Synthesis of hyaluronic acid by human keratinocytes; settings: 1 μm
Description: Human keratinocytes are cultured for 24 h. The cells are contacted with the products to be tested or their excipient for 3 days. The culture supernatants are recovered and a dosage of the amount of hyaluronic acid is achieved. Retinoic acid is used as a positive control. Quantification of cells present on the layer is carried out with the DNA dye (Hoechst 33258), so as to adjust the dosages to the number of cells.

[3] = tested on: normal human melanocytes; test: Inhibition of melanin synthesis on human melanocytes; settings: 0.01%
Description: Normal human melanocytes are cultured in their maintenance medium and then contacted with the products to be tested in the test medium for 10 days. After the contact, melanins are extracted from the cells and assayed by spectrophotometry (490 nm). An estimate of cell number is performed after cultivation using a protein assay by the BCA method. Melanin concentrations are normalized by the sample protein content.

## CCc1ccc(CCOc2ccc(CC3SC(=O)NC3=O)cc2)nc1 (stereo not drawn) [Pioglytazone]
[1]
  stimulation of G3PDH activity vs. control (positive control): +712%

## CC1=C(/C=C/C(C)=C/C=C/C(C)=C/C(=O)O)C(C)(C)CCC1 [Retinoic Acid]
[2]
  stimulation of hyaluronic acid synthesis vs. control (positive control): +106%

## OC[C@H]1O[C@@H](Oc2ccc(O)cc2)[C@H](O)[C@@H](O)[C@@H]1O [arbutine]
[3]
  inhibition compared to the control (melanin, positive reference): 33%
